Experimental data as given in US9962398B2, “Sulfonamide compounds for inhibition of metastatic tumor growth” (Welichem Biotech Inc., priority 2010, dated 2018).
Like-named read-outs stand apart in the source and are kept apart here.

Key:
[1] = tested on: 4T1 cells; assay: Measurement of extracellular pH in hypoxia, 4T1 cells; format: cell-based, mouse; settings: 72 h, 400 uM MST-017
Description: (§1) Changes in solution pH were assessed using procedures published previously (29, 42, 43). In brief, cells were plated at appropriate density (1×10^4 cells/cm2 for 4T1 cells and its transfected derivatives, 2×10^4 cells/cm2 for 66cl4 cells, 1×10^4 cells/cm2 for 67NR cells and its transfected derivatives) in 60 mm dishes and allowed to recover overnight. A standard volume of 3 ml of fresh media/dish was then added and cells were incubated in normoxia (air+5% CO2) or hypoxia (1% O2 and 5% CO2 balanced with nitrogen) for 72 h. Care was taken to ensure that cultures grown in normoxia and hypoxia were at similar confluence and contained similar cell numbers at the time of medium collection. Collected spent media was maintained at 37° C. and pH was measured immediately using a digital pH meter. […] Cells were harvested on ice for qRT-PCR and Western blot analysis.
(§2) Ureido sulfonamides are new.
(§3) Cells were cultured for 72 h in the presence of 10 μM MST-017. Shown in FIG. 9 are representative images of the FITC-tagged inhibitor bound to the cell lines in the indicated conditions. […] For each cell line, changes in the extracellular pH in hypoxia were assessed relative to the baseline extracellular pH measured in parallel cultures grown in normoxia. *P<0.001 with a two-sided Student's t-test, compared to cells cultured without inhibitor.

[2] = tested on: 66cl4 cells; assay: Measurement of extracellular pH in hypoxia, 66cl4 cells; format: cell-based, mouse; settings: 72 h, 600 uM MST-017
Description: as §1, §2
as §3, with “Shown” for “Cells were cultured for 72 h in the presence of 10 μM MST-017. Shown”

[3] = tested on: 4T1 primary tumors; settings: mouse, in vivo
Description: For in vitro studies, the compounds were dissolved in DMSO, stored at −80° C. and diluted into culture medium just prior to application. […] For in vivo studies, the MST-017 inhibitor was administered by i.p. injection (first two doses were administered i.v.) at 75 mg/kg and 150 mg/kg 3× per week for 2 weeks. […] The compounds were solubilized in PEG400/ethanol/saline prior to injection. Vehicle components were held constant as inhibitor concentrations were varied.
(§4) Primary tumor growth rates were calculated from caliper measurements using the modified ellipsoid formula (L×W^2)/2.
Animals were inoculated orthotopically with 4T1 cells. Tumors were allowed to establish for 14 days. Mice were injected with the indicated doses of MST-017 3× per week for 2 weeks. Left panel, tumor growth was monitored by caliper-based measurement. […] Vehicle-treated and untreated animals served as controls. *P<0.02, **P<0.01 using a 2-sided Student's t-test, compared to vehicle controls.
The weights of treated animals were monitored as a measure of general inhibitor toxicity. Mice were weighed just prior to each dose of the CAIX inhibitor.

[4] = tested on: 67NR-derived tumors; settings: mouse, in vivo
Description: For in vivo studies, the MST-017 inhibitor was administered by i.p. injection (first two doses were administered i.v.) at 75 mg/kg and 150 mg/kg 3× per week for 2 weeks. […] The compounds were solubilized in PEG400/ethanol/saline prior to injection. Vehicle components were held constant as inhibitor concentrations were varied.
as §4

[5] = tested on: 4T1 mammary tumor cells; assay: Experimental metastasis assay, intravenous 4T1 cells, bioluminescence; format: in vivo, mouse
Description: For studies involving genetic depletion of CAIX, 4T1 or 67NR cells (5×10^5) were injected directly into the tail vein of 7-9 week-old female BALB/c mice. Mice were imaged once per week to follow the growth of metastases. Mice were euthanized 20 days post-injection and lungs were resected for further analysis. Tumor burden in the lung was quantified by manually counting nodules visible on the lung surface. For studies using sulphonamide inhibitors, 4T1 cells (1-5×10^5) were injected as described above (Pacchiano et al, (2011) J Med Chem 54:1896-1902).
Animals were treated 24 hours post inoculation of cells. Three doses were administered by i.p. injection over 6 days and the mice were imaged 24 hours following the third dose of inhibitor. […] Quantification of tumor-derived bioluminescence is shown in 12C. Regions of interest were positioned around metastatic foci and total flux (photons/sec) at the mouse surface was calculated. Data are reported as the mean±s.e.m. N=4 per group. *P<0.05.
4T1 cells were injected directly into the tail vein of BALB/c mice. […] Vehicle and inhibitor were administered by i.p. injection. Shown are representative images of tumor-cell derived bioluminescence in control and inhibitor-treated animals.

[6] = tested on: MDA-231 LM2-4 Luc+ cells; assay: 3D Matrigel invasion assay in hypoxia; format: cell-based, human; settings: 4 days in hypoxia
Description: A 3D “on-top” matrigel culture assay was performed as described previously (Lee et al, (2007) Nat Methods 4:359-365). […] Cells were allowed to attach for 45 minutes with side-to-side agitation every 10-15 minutes to prevent clumping of cells in the center of the well. An additional 100 μl/well media containing 10% matrigel was added to the cells and cultures were incubated in hypoxia for 4 days. Images were acquired and cultures were fixed for TUNEL using the “whole culture fixation” methodology outlined in Lee et al, (2007) Nat Methods 4:359-365).
Treatment with novel sulfonamide inhibitors of CAIX attenuates hypoxia-induced invasion of human breast cancer cells grown in 3D Matrigel™ cultures (FIG. 16). Cells were cultured in 3D “on-top” Matrigel™ assays for 4 days in hypoxia in the presence of inhibitors. DMSO-treated cell cultures served as controls. The percentage concentration of DMSO and molar concentration of inhibitors are indicated. Representative phase contrast images are shown.

[7] = tested on: MDA-MB-231 LM2-4luc+ tumors; assay: ESA+ cancer stem cell population in orthotopic xenograft tumors (FACS); format: in vivo, human; settings: NOD/SCID mice, 38 mg/kg daily i.p., vs vehicle-treated tumors
Text: MDA-MB-231 LM2-4^luc+ were implanted orthotopically into NOD/SCID mice. […] (A) Primary tumors were removed, dissociated and ESA+ cell population assessed by FACS analysis. […] (B) Data shown are the mean changes in ESA+ cells±SEM, from 3 mice. **P<0.0224.

[8] = tested on: MDA-MB-231 LM2-4Luc+ cells; settings: in vivo
Description: For studies involving CAIX depletion, 1×10^7 MDA-MB-231 cells suspended in a 50% Matrigel/PBS solution were implanted subcutaneously in 6-8 week-old female NOD.CB17-prkdc^scid/J mice. […] Therapy was initiated when the tumors reached 200 mm^3. For both models, tumor growth was monitored by caliper measurement.
The initiation and termination of inhibitor treatment is indicated. n=8/group. *P<0.03, **P<0.001.

[9] = biological target: T1, hCA IX (Homo sapiens (Human), UniProt Q16790)
[10] = biological target: hCA XII (Homo sapiens (Human), UniProt O43570)
hCA XII, sequence (O43570 25-354): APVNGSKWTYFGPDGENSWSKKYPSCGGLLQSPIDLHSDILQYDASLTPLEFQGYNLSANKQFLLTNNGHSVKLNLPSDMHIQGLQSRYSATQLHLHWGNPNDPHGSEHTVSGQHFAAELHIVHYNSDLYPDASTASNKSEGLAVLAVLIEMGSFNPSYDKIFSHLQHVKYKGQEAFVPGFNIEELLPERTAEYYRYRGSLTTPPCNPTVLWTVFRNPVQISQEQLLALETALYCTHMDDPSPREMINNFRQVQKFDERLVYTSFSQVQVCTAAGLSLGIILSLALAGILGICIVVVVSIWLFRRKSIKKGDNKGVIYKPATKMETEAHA

[11] = biological target: hCA I (Homo sapiens (Human), UniProt P00915); settings: read-out: KI (nM) Activity hCAI; Table 1
hCA I, sequence (P00915 whole entry): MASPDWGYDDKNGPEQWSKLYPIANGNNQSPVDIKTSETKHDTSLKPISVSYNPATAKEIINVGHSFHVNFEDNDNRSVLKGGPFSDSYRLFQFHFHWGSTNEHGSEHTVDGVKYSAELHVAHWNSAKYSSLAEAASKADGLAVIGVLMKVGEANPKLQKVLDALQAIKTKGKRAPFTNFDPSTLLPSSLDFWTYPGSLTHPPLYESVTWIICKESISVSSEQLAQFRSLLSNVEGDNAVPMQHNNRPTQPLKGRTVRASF

[12] = biological target: T1, hCA IX; assay: biochemical
[13] = biological target: hCA II (Homo sapiens (Human), UniProt P00918); settings: read-out: Ki (nM) hCA II; Table 3
[14] = read-out: KI (nM) Activity hCAIX, Table 1
[15] = read-out: KI (nM) Activity hCAXII, Table 1

Compound	hypoxia-induced invasion [6]	Ki [9, 14] [nM]	Ki [10, 15] [nM]	Ki [11] [nM]	other results
NS(=O)(=O)c1ccc(CCNC(=S)Nc2ccc(-c3c4ccc(=O)cc-4oc4cc(O)ccc34)c(C(=O)O)c2)cc1 [MST-017]	–	–	–	–	change in extracellular pH [1]: reversed acidification of the extracellular medium; change in extracellular pH [2]: reversed acidification of the extracellular medium; tumor growth [3]: significant inhibition of tumor growth; weights of treated animals [3]: no significant weight reduction; tumor growth [4]: no significant effect; weights of treated animals [4]: no significant weight reduction
NS(=O)(=O)c1ccc(NC(=O)Nc2ccc(F)cc2)cc1 [MST-104, 4-{[(4′-Fluorophenyl)carbamoyl]amino}benzenesulfonamide]	inhibit invasion	–	–	–	formation of metastases (tumor-derived bioluminescence) ([5]; tail vein 4T1 cells, BALB/c mice, daily i.p. for 5 days, imaged 24 h after final dose): statistically significant decrease in the formation of metastases; ESA+ cell population [7]: significantly reduced ESA+ cell population; tumor growth [8]: significant, dose-dependent inhibition of tumor growth
NS(=O)(=O)c1ccc(NC(=O)Nc2c(F)c(F)c(F)c(F)c2F)cc1 [MST-107, 4-{[(Pentafluorophenyl)carbamoyl]amino}benzenesulfonamide]	inhibit invasion	5.4	5.1	–	–
COc1ccccc1NC(=O)Nc1ccc(S(N)(=O)=O)cc1 [MST-108]	–	465	61.2	92	–
N#Cc1ccc(NC(=O)Nc2ccc(S(N)(=O)=O)cc2)cc1 [MST-115, 4-{[(4′-Cyanophenyl)carbamoyl]amino}benzenesulfonamide]	–	6	6.5	57	–
N#Cc1ccccc1NC(=O)Nc1ccc(S(N)(=O)=O)cc1 [MST-116, 4-{([(2′-Cyanophenyl)amino]carbonyl)amino}benzenesulfonamide]	–	0.3	4.6	10.9	–
NS(=O)(=O)c1ccc(NC(=O)Nc2ccc(Oc3ccccc3)cc2)cc1 [MST-117, 4-({[(4′-Phenoxyphenyl)amino]carbonyl}amino)benzenesulfonamide]	–	69.1	7.1	604	–
NS(=O)(=O)c1ccc(NC(=O)Nc2cccc([N+](=O)[O-])c2)cc1 [MST-119, 4-{[(3′-Nitrophenyl)carbamoyl]amino}benzenesulfonamide]	inhibit invasion	0.9	–	–	formation of metastases (tumor-derived bioluminescence) ([5]; i.v. 4T1 cells, three i.p. doses over 6 days, imaged 24 h after third dose): reduces the formation of metastases
NS(=O)(=O)c1ccc(NC(=O)NC2CCCC2)cc1 [MST-122, 4-[(Cyclopentylcarbamoyl)amino]benzenesulfonamide]	–	7.3	7	–	–
NS(=O)(=O)c1cccc(NC(=O)Nc2cccc([N+](=O)[O-])c2)c1 [MST-130, 3-(3-(3′-Nitrophenyl)ureido)benzenesulfonamide]	inhibit invasion	–	–	–	Ki ([9]; read-out: Ki (nM) hCA IX, Table 2): 7.9 nM
NS(=O)(=O)c1cccc(NC(=O)Nc2c(F)c(F)c(F)c(F)c2F)c1 [MST-133, 3-(3-(Perfluorophenyl)ureido)benzenesulfonamide]	–	–	–	–	Ki [12]: 4.2 nM
NS(=O)(=O)c1ccc(NC(=O)Nc2cccc(Cl)c2)cc1 [MST-143, 4-(3-(3′-chlorophenyl)ureido)benzenesulfonamide]	–	–	–	–	Ki [13]: 10 nM; Ki ([9]; read-out: Ki (nM) hCA IX, Table 3): 8.4 nM; Ki ([10]; read-out: Ki (nM) hCA XII, Table 3): 8.5 nM
